# Tests used:
# [1] = tested on: DU145 prostate cancer cell line; test: Cell cycle analysis (PI flow cytometry); type: cell-based, human; details: DU145, 9o at its GI50 concentration, 48h
# Description: Concurrently, there is a decline in the % of cells in the G2 phase from 22.20% in control cells to 20.94% in 9o treated cells.
# (§1) DU145 cancer cell line derived from prostate cancer was treated with the oxindole–benzothiazole conjugate 9o at its GI50. This was followed by treatment of cells according to the reported procedure and the percentage of cells in each stage of the cell cycle was identified and the percentage of cells in the apoptotic and necrotic stages were detected (for further details see additional file 1: analysis of cell cycle distribution; apoptosis assay).
# (§2) 6. Analysis of cell cycle distribution
# (§3) DU-145: Prostate cancer was obtained from Nawah Scientific Inc., (Mokatam, Cairo, Egypt).
# Cells were maintained in DMEM media supplemented with […] of streptomycin, 100 units/mL of penicillin and 10% of heat-inactivated fetal bovine serum in humidified, 5% (v/v) CO2 atmosphere at 37 °C. After treatment with 9o for 48h, cells (10^5 cells) are collected by trypsinization and washed twice with ice-cold PBS (pH 7.4). Cells are re-suspended in two milliliters of 60% ice-cold ethanol and incubated at 4 °C for 1h for fixation. Fixed cells are washed twice again with PBS (pH 7.4) and re-suspended in 1 mL of PBS containing 50 μg/mL RNAase A and 10 μg/mL propidium iodide (PI). After 20 min of incubation in dark at 37 °C, cells are analyzed for DNA contents using flow cytometry analysis using FL2 (λex/em 535/617 nm) signal detector (ACEA Novocyte™ flowcytometer, ACEA Biosciences Inc., San Diego, CA, USA). For each sample, 12,000 events are acquired. […]
# [2] = tested on: DU145 prostate cancer cell line; test: Apoptosis assay (Annexin V-FITC/PI flow cytometry); type: cell-based, human; details: DU145, 9o at its GI50 concentration, 48h
# Description: as §1, §2, §3
# Cells were maintained in DMEM media supplemented with […] of streptomycin, 100 units/mL of penicillin and 10% of heat-inactivated fetal bovine serum in humidified, 5% (v/v) […]
# CO2 atmosphere at 37 °C. […]
# Apoptosis and necrosis cell populations are determined using Annexin V-FITC apoptosis detection kit (Abcam Inc., Cambridge Science Park, Cambridge, UK) coupled with 2 fluorescent channels flowcytometry. After treatment with test compounds for 48h, cells (10^5 cells) are collected by trypsinization and washed twice with ice-cold PBS (pH 7.4). Then, cells are incubated in dark with 0.5 ml of Annexin V-FITC/PI solution for 30 min in dark at room temperature according to manufacturer protocol. After staining, cells are injected via ACEA Novocyte™ flowcytometer (ACEA Biosciences Inc., San Diego, CA, USA) and analysed for FITC and PI fluorescent signals using FL1 and FL2 signal detector, respectively […]
# events are acquired and positive FITC and/or PI cells are quantified by quadrant analysis and […]
# VEGFR-2 = VEGFR-2 (Homo sapiens, UniProt P35968); test: Kinase inhibitory activity on VEGFR-2; type: biochemical; details: mean of two independent experiments ± SD
# FGFR-1 = FGFR-1 (Homo sapiens, UniProt P11362); test: Kinase inhibitory activity on FGFR-1; type: biochemical; details: mean of two independent experiments ± SD
# Chain of FGFR-1 (P11362 22-822, species assumed): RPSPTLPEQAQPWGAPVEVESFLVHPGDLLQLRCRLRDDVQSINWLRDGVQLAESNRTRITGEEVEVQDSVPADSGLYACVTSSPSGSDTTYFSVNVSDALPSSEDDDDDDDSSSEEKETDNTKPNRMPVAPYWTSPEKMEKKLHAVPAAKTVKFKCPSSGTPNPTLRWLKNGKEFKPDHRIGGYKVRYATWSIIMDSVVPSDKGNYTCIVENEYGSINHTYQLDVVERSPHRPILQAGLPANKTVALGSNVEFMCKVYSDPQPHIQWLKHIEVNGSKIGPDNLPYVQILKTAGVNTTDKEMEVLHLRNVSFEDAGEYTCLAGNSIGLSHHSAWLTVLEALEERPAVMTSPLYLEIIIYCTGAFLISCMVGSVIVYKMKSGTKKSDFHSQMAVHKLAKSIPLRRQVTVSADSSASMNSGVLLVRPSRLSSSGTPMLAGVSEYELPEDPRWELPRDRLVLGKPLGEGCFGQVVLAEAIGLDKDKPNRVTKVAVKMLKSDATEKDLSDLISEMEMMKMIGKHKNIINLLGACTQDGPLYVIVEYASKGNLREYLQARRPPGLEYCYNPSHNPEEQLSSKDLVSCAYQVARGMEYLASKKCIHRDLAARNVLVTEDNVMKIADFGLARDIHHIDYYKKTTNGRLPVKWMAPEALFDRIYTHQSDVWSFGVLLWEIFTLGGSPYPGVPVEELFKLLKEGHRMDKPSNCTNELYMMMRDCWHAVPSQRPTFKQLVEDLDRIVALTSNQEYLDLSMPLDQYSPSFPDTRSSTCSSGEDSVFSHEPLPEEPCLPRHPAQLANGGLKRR
# Chain of VEGFR-2 (P35968 20-1356, species assumed): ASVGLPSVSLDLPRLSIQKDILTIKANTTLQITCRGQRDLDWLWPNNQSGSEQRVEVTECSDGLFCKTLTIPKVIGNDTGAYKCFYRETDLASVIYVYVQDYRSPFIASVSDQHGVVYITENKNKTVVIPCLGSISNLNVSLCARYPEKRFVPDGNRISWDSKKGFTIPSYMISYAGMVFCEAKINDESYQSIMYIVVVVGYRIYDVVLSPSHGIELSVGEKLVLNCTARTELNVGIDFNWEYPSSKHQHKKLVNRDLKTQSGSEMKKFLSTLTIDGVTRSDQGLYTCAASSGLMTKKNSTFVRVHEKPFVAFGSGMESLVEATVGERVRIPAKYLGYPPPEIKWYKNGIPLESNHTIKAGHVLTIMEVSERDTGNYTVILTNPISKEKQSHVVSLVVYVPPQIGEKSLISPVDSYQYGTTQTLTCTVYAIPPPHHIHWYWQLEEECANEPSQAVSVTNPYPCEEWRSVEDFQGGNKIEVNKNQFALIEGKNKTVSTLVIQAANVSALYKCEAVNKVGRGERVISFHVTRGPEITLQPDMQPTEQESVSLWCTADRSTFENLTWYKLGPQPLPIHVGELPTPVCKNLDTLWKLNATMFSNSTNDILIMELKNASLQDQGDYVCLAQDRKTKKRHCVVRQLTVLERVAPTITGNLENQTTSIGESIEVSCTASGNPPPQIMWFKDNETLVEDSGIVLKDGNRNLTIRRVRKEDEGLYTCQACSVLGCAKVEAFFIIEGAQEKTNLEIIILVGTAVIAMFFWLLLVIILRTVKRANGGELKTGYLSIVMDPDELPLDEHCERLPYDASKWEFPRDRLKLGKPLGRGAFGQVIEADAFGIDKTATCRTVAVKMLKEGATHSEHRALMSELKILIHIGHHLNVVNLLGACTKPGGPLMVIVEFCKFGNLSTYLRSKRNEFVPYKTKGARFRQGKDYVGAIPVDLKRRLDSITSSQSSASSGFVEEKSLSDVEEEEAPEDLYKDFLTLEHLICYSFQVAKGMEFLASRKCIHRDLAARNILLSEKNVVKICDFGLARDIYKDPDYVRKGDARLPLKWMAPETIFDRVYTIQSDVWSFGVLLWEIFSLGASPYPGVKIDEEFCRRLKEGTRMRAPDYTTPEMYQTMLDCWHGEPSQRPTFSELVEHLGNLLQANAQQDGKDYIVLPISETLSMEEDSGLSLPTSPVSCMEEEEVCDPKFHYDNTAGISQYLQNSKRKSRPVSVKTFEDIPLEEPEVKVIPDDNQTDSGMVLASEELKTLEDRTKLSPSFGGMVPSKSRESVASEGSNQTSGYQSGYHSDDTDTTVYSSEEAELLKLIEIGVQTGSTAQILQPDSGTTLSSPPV
structure (smiles),measurement,setting,value
"COc1ccc2c(c1)C(=NNC(=O)COc1cc(-c3nc4ccccc4s3)ccc1OC)C(=O)N2 [Compound 9o, 2-(5-(Benzo[d]thiazol-2-yl)-2-methoxyphenoxy)-N′-(5-methoxy-2-oxoindolin-3-ylidene)acetohydrazide]",%G0/G1,[1],61.40%
same,%G2/M,[1],20.94%
same,%S,[1],17.66%
same,%Sub-G1,[1],0.41%
same,% early apoptotic cells (Q2–4),[2],0.28%
same,% of cells in the late apoptotic stage (Q2–2),[2],5.02%
same,% of cells in the necrotic stage (Q2–1),[2],2.63%
same,% viable cells (Q2–3),[2],92.07%
same,IC50,VEGFR-2,> 10 µM
same,IC50,FGFR-1,> 10 µM
